Among the data in US12384776B2, “Compounds and uses thereof” (Foghorn Therapeutics Inc., priority 2019, dated 2025) are IC50 values, retold here.

For test [1], the target named is Nanoluciferase-BRD9 fusion protein (3×FLAG-NLuc-BRD9) in SYO-1 cells (Homo sapiens (Human), UniProt Q9H8M2). Description: SYO1 BRD9 NanoLuc degradation assay. It counts as cell-based. The settings on record: SYO-1 cells, 6 hours, Table 6A. In outline:
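Degradation read as loss of NLuc signal after 6 h compound exposure (1 μM top final, 3-fold steps, 10 points, duplicates) in SYO-1 cells stably carrying 3×FLAG-NLuc-BRD9. Signal normalised between DMSO-treated cells and cells given 1 μM of a known BRD9 degrader.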

The next test deals with BRD9 bromodomain (Homo sapiens (Human), UniProt Q9H8M2). Put plainly: BRD9 bromodomain TR-FRET competition binding assay. As for the experimental part: Procedure: His-Flag-BRD9 (P133-K239; Swiss Prot Q9H8M2; SEQ ID NO:1 mgsshhhhhhenlyfq/gdykddddkgslevlfqg/[…] […]) was cloned, expressed, purified, and then treated with TEV protease. Cleaved His tag was removed by purification. The binding of a biotinylated small molecule ligand of BRD9 was assessed via the LANCE® TR-FRET platform (PerkinElmer), and the compounds were assayed for inhibitory activity against this interaction.
Results: A mixture of biotinylated-ligand and SureLight™ Allophycocyanin-Streptavidin (APC-SA, PerkinElmer AD0201) in 50 mM HEPES (pH 7.4), 50 mM NaCl, 1 mM TCEP (pH 7), 0.01% (v/v) Tween-20, 0.01% (w/v) bovine serum albumin was added to a white 384-well PerkinElmer Proxiplate Plus plate. DMSO or 3-fold serially diluted compounds were then added to the Proxiplate followed by addition of Flag-BRD9. After a 10-minute incubation at room temperature, Eu—W1024 anti-FLAG (PerkinElmer, AD0273) was added. The final reaction mixture that contained 3.75 nM biotinylated ligand, 3 nM Flag-BRD9, 7.5 nM SureLight™ Allophycocyanin-Streptavidin, and 0.2 nM Eu—W1024 anti-FLAG was incubated at room temperature for 90 minutes.
The plates were then read on a PerkinElmer Envision plate reader to determine the ratio of emission at 665 nm over 615 nm. […]

BRD9 bromodomain, sequence (Q9H8M2 133-239): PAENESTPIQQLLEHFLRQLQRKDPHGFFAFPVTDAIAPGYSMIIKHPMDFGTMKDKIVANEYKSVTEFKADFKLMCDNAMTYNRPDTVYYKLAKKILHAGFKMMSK
Nanoluciferase-BRD9 fusion protein (3×FLAG-NLuc-BRD9) in SYO-1 cells, sequence (Q9H8M2 whole entry, the tested form may be a part): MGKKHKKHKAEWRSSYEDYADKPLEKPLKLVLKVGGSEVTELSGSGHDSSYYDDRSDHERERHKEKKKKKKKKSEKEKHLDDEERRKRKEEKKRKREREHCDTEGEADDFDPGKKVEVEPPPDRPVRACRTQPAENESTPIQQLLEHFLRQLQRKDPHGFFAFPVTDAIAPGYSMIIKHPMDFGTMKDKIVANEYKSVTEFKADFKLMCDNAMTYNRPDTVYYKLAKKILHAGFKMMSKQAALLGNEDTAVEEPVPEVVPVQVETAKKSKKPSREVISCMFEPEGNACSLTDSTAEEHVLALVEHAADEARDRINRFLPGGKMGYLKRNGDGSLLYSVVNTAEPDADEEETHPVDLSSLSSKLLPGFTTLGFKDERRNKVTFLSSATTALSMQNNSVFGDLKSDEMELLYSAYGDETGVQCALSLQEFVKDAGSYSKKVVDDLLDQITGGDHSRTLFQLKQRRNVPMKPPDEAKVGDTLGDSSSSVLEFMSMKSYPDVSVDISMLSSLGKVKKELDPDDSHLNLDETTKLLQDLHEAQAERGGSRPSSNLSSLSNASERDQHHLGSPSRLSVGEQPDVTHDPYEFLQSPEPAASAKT

Regarding `COc1cc(-c2cn(C)c(=O)c3c2CCN(C(=O)NCCCCCCCCCC(=O)N[C@H](C(=O)N2C[C@H](O)C[C@H]2C(=O)NCc2ccc(-c4scnc4C)cc2)C(C)(C)C)C3)cc(OC)c1CN(C)C` [Compound D38, (2S,4R)-1-[(2S)-2-[10-(5-[4-[(dimethylamino)methyl]-3,5-dimethoxyphenyl]-7-methyl-8-oxo-3,4-dihydro-1H-2,7-naphthyridine-2-carbonylamino)decanamido]-3,3-dimethylbutanoyl]-4-hydroxy-N-[[4-(4-methyl-1,3-thiazol-5-yl)phenyl]methyl]pyrrolidine-2-carboxamide], the half-inhibitory concentration (IC50) in test [1] was greater than 10 nM; on BRD9 bromodomain it was less than 10 nM. As to `CNC(=O)N1CCc2c(-c3cc(OC)c(CN4CCC(CCN5CCN(c6ccc7c(c6)C(=O)N(C6CCC(=O)NC6=O)C7=O)CC5)CC4)c(OC)c3)cn(C)c(=O)c2C1` (stereo not shown) [Compound D28, 5-(4-[[4-(2-[4-[2-(2,6-dioxopiperidin-3-yl)-1,3-dioxoisoindol-5-yl]piperazin-1-yl]ethyl)piperidin-1-yl]methyl]-3,5-dimethoxyphenyl)-N,7-dimethyl-8-oxo-3,4-dihydro-1H-2,7-naphthyridine-2-carboxamide formic acid], the IC50 (in test [1]; at BRD9 bromodomain) was less than 10 nM in each case. Regarding `COc1cc(-c2cn(C)c(=O)c3c2CCN(C(=O)CCCCCOc2cccc4c2C(=O)N(C2CCC(=O)NC2=O)C4=O)C3)cc(OC)c1CN(C)C` (stereo not shown) [Compound D20, ([4-[7-(6-[[2-(2,6-dioxopiperidin-3-yl)-1,3-dioxo-2,3-dihydro-1H-isoindol-4-yl]oxy]hexanoyl)-2-methyl-1-oxo-1,2,5,6,7,8-hexahydro-2,7-naphthyridin-4-yl]-2,6-dimethoxyphenyl]methyl)(methyl)aminyl], the IC50 (in test [1]; at BRD9 bromodomain) was greater than 1000 nM throughout. As for `COc1cc(-c2cn(C)c(=O)c3c2CCN(C(=O)NCCOCCNc2ccc4c(c2)C(=O)N(C2CCC(=O)NC2=O)C4=O)C3)cc(OC)c1CN(C)C` (stereo not shown) [Compound D21, 5-[4-[(dimethylamino)methyl]-3,5-dimethoxyphenyl]-N-[2-(2-[[2-(2,6-dioxopiperidin-3-yl)-1,3-dioxoisoindol-5-yl]amino]ethoxy)ethyl]-7-methyl-8-oxo-3,4-dihydro-1H-2,7-naphthyridine-2-carboxamide formic acid], the IC50 (in test [1]; on BRD9 bromodomain) was greater than 10 nM throughout. With `COc1cc(-c2cn(C)c(=O)c3c2CCN(C(=O)NCCOCCNc2cccc4c2C(=O)N(C2CCC(=O)NC2=O)C4=O)C3)c(OC)cc1CN(C)C` (stereo not shown) [Compound D14, 5-[4-[(dimethylamino)methyl]-2,5-dimethoxyphenyl]-N-[2-(2-[[2-(2,6-dioxopiperidin-3-yl)-1,3-dioxoisoindol-4-yl]amino]ethoxy)ethyl]-7-methyl-8-oxo-3,4-dihydro-1H-2,7-naphthyridine-2-carboxamide formic acid], the IC50 is greater than 100 nM in test [1] and greater than 10 nM on BRD9 bromodomain. On the same counts, the results for `COc1cc(-c2cn(C)c(=O)c3c2CCN(C(=O)NCCCCCCCC(=O)N[C@H](C(=O)N2C[C@H](O)C[C@H]2C(=O)NCc2ccc(-c4scnc4C)cc2)C(C)(C)C)C3)cc(OC)c1CN(C)C` [Compound D37, (2S,4R)-1-[(2S)-2-[8-(5-[4-[(dimethylamino)methyl]-3,5-dimethoxyphenyl]-7-methyl-8-oxo-3,4-dihydro-1H-2,7-naphthyridine-2-carbonylamino)octanamido]-3,3-dimethylbutanoyl]-4-hydroxy-N-[[4-(4-methyl-1,3-thiazol-5-yl)phenyl]methyl]pyrrolidine-2-carboxamide formic acid] are greater than 10 nM and less than 10 nM. Take `COc1cc(-c2cn(C)c(=O)c3c2CCN(C(=O)NCCCCCCCCNc2cccc4c2CN(C2CCC(=O)NC2=O)C4=O)C3)cc(OC)c1CN(C)C` (stereo not shown) [Compound D29, 5-(4-((dimethylamino)methyl)-3,5-dimethoxyphenyl)-N-(8-((2-(2,6-dioxopiperidin-3-yl)-1-oxoisoindolin-4-yl)amino)octyl)-7-methyl-8-oxo-3,4,7,8-tetrahydro-2,7-naphthyridine-2 (1H)-carboxamide formic acid]: the IC50 (in test [1]; on BRD9 bromodomain) was less than 10 nM in each case. Regarding `COc1cc(-c2cn(C)c(=O)c3c2CCN(C(=O)CCCCCCCCNc2cccc4c2C(=O)N(C2CCC(=O)NC2=O)C4=O)C3)cc(OC)c1CN(C)C` (stereo not shown) [Compound D19, 4-[[9-(5-[4-[(dimethylamino)methyl]-3,5-dimethoxyphenyl]-7-methyl-8-oxo-1,2,3,4,7,8-hexahydro-2,7-naphthyridin-2-yl)-9-oxononyl]amino]-2-(2,6-dioxopiperidin-3-yl)-2,3-dihydro-1H-isoindole-1,3-dione], the 50% inhibitory concentration (IC50) (in test [1]; on BRD9 bromodomain) was greater than 1000 nM each time. As for `COc1cc(-c2cn(C)c(=O)c3c2CN(C(=O)NCCOCCOCCNc2cccc4c2C(=O)N(C2CCC(=O)NC2=O)C4=O)CC3)cc(OC)c1CN(C)C` (stereo not shown) [Compound D23, 8-[4-[(dimethylamino)methyl]-3,5-dimethoxyphenyl]-N-[2-[2-(2-[[2-(2,6-dioxopiperidin-3-yl)-1,3-dioxoisoindol-4-yl]amino]ethoxy)ethoxy]ethyl]-6-methyl-5-oxo-3,4-dihydro-1H-2,6-naphthyridine-2-carboxamide formic acid], the IC50 was greater than 1000 nM in test [1] and greater than 100 nM at BRD9 bromodomain. For `COc1cc(-c2cn(C)c(=O)c3c2CCN(C(=O)NCCCCCOc2cccc4c2C(=O)N(C2CCC(=O)NC2=O)C4=O)C3)cc(OC)c1CN(C)C` (stereo not shown) [Compound D18, 5-[4-[(dimethylamino)methyl]-3,5-dimethoxyphenyl]-N-(5-[[2-(2,6-dioxopiperidin-3-yl)-1,3-dioxoisoindol-4-yl]oxy]pentyl)-7-methyl-8-oxo-3,4-dihydro-1H-2,7-naphthyridine-2-carboxamide], the IC50 (in test [1]; at BRD9 bromodomain) was greater than 10 nM throughout. As to `CNC(=O)N1CCc2c(c(-c3cc(OC)c(CN(C)CC(=O)NCCOCCOc4cccc5c4C(=O)N(C4CCC(=O)NC4=O)C5=O)c(OC)c3)cn(C)c2=O)C1` (stereo not shown) [Compound D24, 8-(4-(((2-((2-(2-((2-(2,6-dioxopiperidin-3-yl)-1,3-dioxoisoindolin-4-yl)oxy)ethoxy)ethyl)amino)-2-oxoethyl)(methyl)amino)methyl)-3,5-dimethoxyphenyl)-N,6-dimethyl-5-oxo-3,4,5,6-tetrahydro-2,6-naphthyridine-2 (1H)-carboxamide], the values for the IC50 (in test [1]; at BRD9 bromodomain) were greater than 1000 nM and greater than 100 nM, respectively. Compound `COc1cc(-c2cn(C)c(=O)c3c2CCN(C(=O)NCCOCCOCCOCC(=O)N[C@@H](C(=O)N2C[C@@H](O)C[C@@H]2C(=O)NCc2ccc(-c4scnc4C)cc2)C(C)(C)C)C3)cc(OC)c1CN(C)C` [Compound D35, (2R,4S)-1-[(2R)-2-[2-(2-[2-[2-(5-[4-[(dimethylamino)methyl]-3,5-dimethoxyphenyl]-7-methyl-8-oxo-3,4-dihydro-1H-2,7-naphthyridine-2-carbonylamino)ethoxy]ethoxy]ethoxy)acetamido]-3,3-dimethylbutanoyl]-4-hydroxy-N-[[4-(4-methyl-1,3-thiazol-5-yl)phenyl]methyl]pyrrolidine-2-carboxamide] showed an IC50 at BRD9 bromodomain greater than 10 nM.

As for `CNC(=O)N1CCc2c(-c3cc(OC)c(CN(C)C)c(OC)c3)cn(C)c(=O)c2C1` [Compound B9, 5-(4-((dimethylamino)methyl)-3,5-dimethoxyphenyl)-N,7-dimethyl-8-oxo-3,4,7,8-tetrahydro-2,7-naphthyridine-2 (1H)-carboxamide], at BRD9 bromodomain, the IC50 was less than 10 nM. The compound `COc1cc(-c2cn(C)c(=O)c3c2CNC(C(N)=O)C3)cc(OC)c1CN(C)C` (stereo not shown) [Compound B4, 8-[4-[(dimethylamino)methyl]-3,5-dimethoxyphenyl]-6-methyl-5-oxo-1,2,3,4,5,6-hexahydro-2,6-naphthyridine-3-carboxamide] displayed an IC50 at BRD9 bromodomain greater than 1000 nM. Compound `COc1cc(-c2cn(C)c(=O)c3c2CCN(C(C)=O)C3)cc(OC)c1CN(C)C` [Compound B14, 7-acetyl-4-[4-[(dimethylamino)methyl]-3,5-dimethoxyphenyl]-2-methyl-1,2,5,6,7,8-hexahydro-2,7-naphthyridin-1-one] came in with an IC50 on BRD9 bromodomain greater than 1000 nM.

Consider `COc1cc(-c2cn(C)c(=O)c3c2CCN(C(=O)NCCOCCOCC(=O)N[C@H](C(=O)N2C[C@H](O)C[C@H]2C(=O)NCc2ccc(-c4scnc4C)cc2)C(C)(C)C)C3)cc(OC)c1CN(C)C` [Compound D34, (2S,4R)-1-[(2S)-2-(2-[2-[2-(5-[4-[(dimethylamino)methyl]-3,5-dimethoxyphenyl]-7-methyl-8-oxo-3,4-dihydro-1H-2,7-naphthyridine-2-carbonylamino)ethoxy]ethoxy]acetamido)-3,3-dimethylbutanoyl]-4-hydroxy-N-[[4-(4-methyl-1,3-thiazol-5-yl)phenyl]methyl]pyrrolidine-2-carboxamide formic acid], for which the IC50 at BRD9 bromodomain was greater than 10 nM.

On BRD9 bromodomain, `CCC(=O)N1CCc2c(-c3cc(OC)c(CN(C)C)c(OC)c3)cn(C)c(=O)c2C1` [Compound B12] displayed an IC50 greater than 1000 nM.
